Experiment: Tritosomal stability of p-nitrophenyl glycosides
Format: in vitro ADME, rat
Conditions: for Readings from spectrometer, absorbance at 410 nm, Assay 1 / Readings from spectrometer, absorbance at 410 nm, Assay 2: rat, pH 5.5; for tritosomal cleavage (production of p-nitrophenol, absorbance at 410 nm): substrate 31.0 mg/ml in DMSO, 37° C., after 20 hours
Excerpt: One essential facet of the LEAPT concept is that the rhamnoside-capped prodrugs will be cleaved only by the selectively delivered naringinase construct. To ensure that this is possible, a lysosomal tritosome preparation was used to assess the potential cleavage of α-L-rhamnopyranosides by enzymes in the hepatocytes. p-Nitrophenyl α-L-rhamnopyranoside was used as a chromogenic prodrug mimic. If there are enzymes present in the hepatocytes capable of cleaving α-L-rhamnopyranosidic linkages, this would be detected over an extended assay by the production of p-nitrophenol. Assay conditions based on those used in 2.2.4 were recreated with the used of pNP-α-L-Rha instead of the protease substrate. The mixture was incubated at 37° C. and the absorbance at 410 nm recorded every 5 minutes.
With the concentration of pNP-α-L-Rha increased ten-fold, the tritosomal stability of rhamnopyranosides was reassessed.
Further assessments of the glycosidic enzymes present in the tritosomal preparation were required to allow further design of prodrugs. An assay equivalent to 2.8.7 was used to assess β-D-galactopyranosidic activity.
Further assessments of the glycosidic enzymes present in the tritosomal preparation were required to allow further design of prodrugs. An assay equivalent to 2.3.7 was used to assess β-D-glucopyranosidic activity.
A stock solution of p-nitrophenyl α-L-rhamnopyranoside in DMSO (3.1 mg/ml, equivalent to BzPheValArgNap solution) was used in an assay equivalent to 2.8.4.
As no activity against α-L-rhamnopyranosides was detected in the previous assay, a higher concentration of pNPαL-Rha (31.0 mg/ml) in DMSO was used in an otherwise identical assay. In addition, the cuvette was incubated at 37° C. for 20 hours and the absorbance reading repeated.
A stock solution of p-nitrophenyl β-D-galactopyranoside in DMSO (31.0 mg/ml) was used in an assay equivalent to 2.8.7. In addition, the cuvette was incubated at 37° C. for 20 hours and the absorbance reading repeated.
A stock solution of p-nitrophenyl β-D-glucopyranoside in DMSO (31.0 mg/ml) was used in an assay equivalent to 2.8.7. In addition, the cuvette was incubated at 37° C. for 20 hours and the absorbance reading repeated.

Q: With C[C@@H]1O[C@@H](Oc2ccc([N+](=O)[O-])cc2)[C@H](O)[C@H](O)[C@H]1O [pNP-α-L-Rha, p-Nitrophenyl α-L-rhamnopyranoside] as the compound, how does the “Readings from spectrometer, absorbance at 410 nm, Assay 1” value (“Readings from spectrometer … Assay 1” for short) (0 min, 0.093 mg/ml) read?
A: Its value is 0.158.

Q: What about the “Readings from spectrometer, absorbance at 410 nm, Assay 2” value (shortened to “Readings from spectrometer … Assay 2”) (0 min, 0.093 mg/ml) of the same compound?
A: Its value is 0.160.

Q: And the “Readings from spectrometer … Assay 1” value (0 min, 0.93 mg/ml)?
A: The value was 0.173.

Q: And the “Readings from spectrometer … Assay 2” value (0 min, 0.93 mg/ml)?
A: Its value is 0.172.

Q: And the “Readings from spectrometer … Assay 1” value (5 min, 0.093 mg/ml)?
A: The value was 0.155.

Q: And the “Readings from spectrometer … Assay 2” value (5 min, 0.093 mg/ml)?
A: Its value is 0.159.

Q: And the “Readings from spectrometer … Assay 1” value (5 min, 0.93 mg/ml)?
A: Its value is 0.169.

Q: What about the “Readings from spectrometer … Assay 2” value (5 min, 0.93 mg/ml) of the same compound?
A: The value was 0.170.

Q: And the “Readings from spectrometer … Assay 1” value (10 min, 0.093 mg/ml)?
A: The value was 0.153.

Q: What about the “Readings from spectrometer … Assay 2” value (10 min, 0.093 mg/ml) of the same compound?
A: The value was 0.159.

Q: What about the “Readings from spectrometer … Assay 1” value (10 min, 0.93 mg/ml) of the same compound?
A: Its value is 0.166.

Q: What about the “Readings from spectrometer … Assay 2” value (10 min, 0.93 mg/ml) of the same compound?
A: Its value is 0.167.

Q: What about the “Readings from spectrometer … Assay 1” value (15 min, 0.093 mg/ml) of the same compound?
A: Its value is 0.151.

Q: What about the “Readings from spectrometer … Assay 2” value (15 min, 0.093 mg/ml) of the same compound?
A: Its value is 0.158.

Q: And the “Readings from spectrometer … Assay 1” value (15 min, 0.93 mg/ml)?
A: The value was 0.165.

Q: And the “Readings from spectrometer … Assay 2” value (15 min, 0.93 mg/ml)?
A: Its value is 0.166.

Q: And the “Readings from spectrometer … Assay 1” value (20 min, 0.093 mg/ml)?
A: The value was 0.150.

Q: What about the “Readings from spectrometer … Assay 2” value (20 min, 0.093 mg/ml) of the same compound?
A: The value was 0.159.

Q: And the “Readings from spectrometer … Assay 1” value (20 min, 0.93 mg/ml)?
A: The value was 0.162.

Q: What about the “Readings from spectrometer … Assay 2” value (20 min, 0.93 mg/ml) of the same compound?
A: Its value is 0.164.

Q: And the “Readings from spectrometer … Assay 1” value (25 min, 0.093 mg/ml)?
A: Its value is 0.150.

Q: And the “Readings from spectrometer … Assay 2” value (25 min, 0.093 mg/ml)?
A: Its value is 0.157.

Q: What about the “Readings from spectrometer … Assay 1” value (25 min, 0.93 mg/ml) of the same compound?
A: The value was 0.161.

Q: And the “Readings from spectrometer … Assay 2” value (25 min, 0.93 mg/ml)?
A: The value was 0.165.

Q: What about the “Readings from spectrometer … Assay 1” value (30 min, 0.093 mg/ml) of the same compound?
A: The value was 0.149.

Q: And the “Readings from spectrometer … Assay 2” value (30 min, 0.093 mg/ml)?
A: The value was 0.157.

Q: And the “Readings from spectrometer … Assay 1” value (30 min, 0.93 mg/ml)?
A: The value was 0.158.

Q: And the “Readings from spectrometer … Assay 2” value (30 min, 0.93 mg/ml)?
A: Its value is 0.163.

Q: And the “Readings from spectrometer … Assay 1” value (20 h, 0.93 mg/ml)?
A: The value was 0.138.

Q: What about the “Readings from spectrometer … Assay 2” value (20 h, 0.93 mg/ml) of the same compound?
A: The value was 0.131.

Q: For O=[N+]([O-])c1ccc(O[C@@H]2O[C@H](CO)[C@H](O)[C@H](O)[C@H]2O)cc1 [pNP-β-D-Gal, p-nitrophenyl β-D-galactopyranoside], which “tritosomal cleavage (production of p-nitrophenol, absorbance at 410 nm)” value is on record?
A: The value was “significant amount of p-nitrophenol had been released”.

Q: With O=[N+]([O-])c1ccc(O[C@@H]2O[C@H](CO)[C@@H](O)[C@H](O)[C@H]2O)cc1 [pNP-β-D-Glc, p-nitrophenyl β-D-glucopyranoside] as the compound, how does the “tritosomal cleavage (production of p-nitrophenol, absorbance at 410 nm)” value read?
A: The value was “significant amount of p-nitrophenol had been released”.

— patent US20070253942A1, “Lectin-directed prodrug delivery system” (Isis Innovation Limited, priority 2001, published 2007)
